Source: publication PMC10793102 (Acta Pharmaceutica Sinica. B, 2023)
Where two headings read alike, the source gives them in different places.

Columns and labels:
[1] = target: TEL-TRKA fusion (Homo sapiens, UniProt P04629+P41212); experiment: Anti-proliferation in engineered Ba/F3 cells dependent on TEL-TRKA; type: cell-based; conditions: read-out: IC50 anti-proliferative effect, TEL-TRKA Ba/F3; 72 h
[2] = test system: p-S345 MLKL; experiment: Pharmacodynamic study in SIRS mouse model, p-MLKL immunostaining; type: in vivo; conditions: 2 mpk, 8 h after TNFα (20 μg)
[3] = test system: TNFα-induced systemic inflammatory response syndrome; experiment: TNFα-induced SIRS mouse model; type: in vivo, C57BL/6J male mice; conditions: TNFα 10 μg iv
[4] = test system: phosphorylation of RIPK1, RIPK3 and MLKL; experiment: Western blotting of necroptotic signaling in L929 cells; type: cell-based, mouse; conditions: TNFα (40 ng/mL) and SM164 (25 nmol/L), 15 h, titration
[5] = test system: SARS-CoV-2; type: cell-based; conditions: 5 μmol/L, 48 h, human lung organoids
[6] = test system: FADD−/− Jurkat; experiment: Cell viability assay, protection from necroptosis in FADD−/− Jurkat cells; type: cell-based; conditions: Homo sapiens, 16 h
[7] = test system: L929; experiment: Cell viability assay, protection from necroptosis in L929 cells; type: cell-based, mouse; conditions: Mus musculus, L929, 16 h
[8] = test system: RIPK1; type: cell-based, human
[9] = target: T1, hRIPK1 (Homo sapiens, UniProt Q13546); experiment: In vitro RIPK1 kinase activity assay; type: biochemical; conditions: Enzymatic IC50s RIPK1, hRIPK1 enzymatic assay
T1 sequence (Q13546 1-671): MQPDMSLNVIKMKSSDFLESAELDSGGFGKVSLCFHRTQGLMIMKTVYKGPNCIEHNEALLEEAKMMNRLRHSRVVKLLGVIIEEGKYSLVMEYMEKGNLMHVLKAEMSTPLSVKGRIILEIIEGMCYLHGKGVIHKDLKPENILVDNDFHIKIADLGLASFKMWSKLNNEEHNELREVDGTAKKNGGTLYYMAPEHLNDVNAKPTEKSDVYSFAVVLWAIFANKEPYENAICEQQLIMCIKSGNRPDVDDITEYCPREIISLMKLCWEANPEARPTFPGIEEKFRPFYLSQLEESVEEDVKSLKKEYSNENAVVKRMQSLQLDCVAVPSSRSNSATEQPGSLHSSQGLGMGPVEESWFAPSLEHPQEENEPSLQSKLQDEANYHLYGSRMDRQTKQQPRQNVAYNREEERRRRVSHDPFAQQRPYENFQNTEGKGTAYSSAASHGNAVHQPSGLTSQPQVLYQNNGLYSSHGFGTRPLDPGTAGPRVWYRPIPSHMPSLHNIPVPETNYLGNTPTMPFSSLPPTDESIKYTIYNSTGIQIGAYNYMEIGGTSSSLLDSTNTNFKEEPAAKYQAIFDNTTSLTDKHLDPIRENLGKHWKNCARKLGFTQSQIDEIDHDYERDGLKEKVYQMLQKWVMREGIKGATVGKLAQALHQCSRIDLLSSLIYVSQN

[10] = test system: p-S166 RIPK1; experiment: Pharmacodynamic study in SIRS mouse model, p-RIPK1 immunostaining; type: in vivo; conditions: 1 mpk, 8 h after TNFα (20 μg)
[11] = target: hRIPK3 (Homo sapiens, UniProt Q9Y572); experiment: In vitro RIPK3 kinase activity assay; type: biochemical
hRIPK3, sequence (Q9Y572 whole entry): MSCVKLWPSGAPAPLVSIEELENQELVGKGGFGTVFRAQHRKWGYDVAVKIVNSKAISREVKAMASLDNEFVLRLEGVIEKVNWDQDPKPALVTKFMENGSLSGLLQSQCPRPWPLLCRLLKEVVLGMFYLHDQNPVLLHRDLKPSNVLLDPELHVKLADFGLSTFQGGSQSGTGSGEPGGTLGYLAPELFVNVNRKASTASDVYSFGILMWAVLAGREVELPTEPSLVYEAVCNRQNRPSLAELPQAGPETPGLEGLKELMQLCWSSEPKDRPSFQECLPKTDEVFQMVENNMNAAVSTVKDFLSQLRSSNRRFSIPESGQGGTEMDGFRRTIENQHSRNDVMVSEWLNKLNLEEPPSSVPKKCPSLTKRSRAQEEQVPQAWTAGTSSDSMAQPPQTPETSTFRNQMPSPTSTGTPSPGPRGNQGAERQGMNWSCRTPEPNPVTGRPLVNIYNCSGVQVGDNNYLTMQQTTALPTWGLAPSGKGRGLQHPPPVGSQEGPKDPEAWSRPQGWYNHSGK

[12] = PK study in rats; type: in vivo; conditions: SD, rat, plasma
[13] = test system: Ripk1K612R/K612R mice; type: in vivo, mouse; conditions: 10 or 20 mpk po QD, 40 days
[14] = PK study in mice; type: in vivo; conditions: male, ICR, mouse, plasma
[15] = test system: RA symptoms; experiment: RA mouse model induced by collagen antibodies and LPS; type: in vivo, BALB/c male mice; conditions: 15 or 30 mpk po daily, 8 days

TEL-TRKA fusion, sequence (P04629 510-781 limits assumed, one chain of several): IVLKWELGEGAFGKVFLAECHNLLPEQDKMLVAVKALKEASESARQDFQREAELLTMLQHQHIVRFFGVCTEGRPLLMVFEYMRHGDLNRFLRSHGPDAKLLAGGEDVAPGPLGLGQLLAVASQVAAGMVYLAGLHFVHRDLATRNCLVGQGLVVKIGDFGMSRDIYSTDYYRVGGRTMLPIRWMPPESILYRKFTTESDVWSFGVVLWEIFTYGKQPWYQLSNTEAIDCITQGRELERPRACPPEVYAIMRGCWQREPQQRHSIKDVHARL

For `C[C@@H](c1ccc(-n2cnc3c(N)ncnc32)cc1)N1CCc2nn(C)c(Cc3ccccc3)c2C1=O` [compound 62, (S)-5-(1-(4-(6-Amino-9H-purin-9-yl)phenyl)ethyl)-3-benzyl-2-methyl-2,5,6,7-tetrahydro-4H-pyrazolo[4,3-c]pyridin-4-one], the IC50 [1] was 634 nM, the “phosphorylation levels of MLKL in mouse organs” value [2] was “significantly suppressed” and the “symptoms (hypothermia) in SIRS mice” value ([3]; 1 mpk (po)) was “almost eliminated the symptoms”. The “survival in SIRS mice” value ([3]; 1 mpk (po), n = 7) was “protected all mice from the fatality”, the “acute hypothermia in SIRS mice” value ([3]; 2 mpk (po)) was “completely mitigated the acute hypothermia” and the “phosphorylation cascade (Western blot), L929” value [4] was “almost completely blocked the phosphorylation cascade at 40 nmol/L”. For the same compound, the “antiviral effects (SARS-CoV-2 N protein levels)” value [5] was “very strong antiviral effects compared to reported RIPK1i”, the EC50 ([6]; read-out: EC50 FADD−/− Jurkat T + S) was 0.1 nM and the EC50 ([6]; read-out: EC50 FADD−/− Jurkat TNFα) was 0.02 nM. The EC50 ([7]; read-out: EC50 L929 T + S) was 1.3 nM, the EC50 ([7]; read-out: EC50 L929 TNFα) was 0.2 nM and the “activation of RIPK1 in SARS-CoV-2 infected human lung organoids” value [8] was “completely abolished the activation of RIPK1”. For the same compound, the IC50 [9] was 3.5 nM, the “TNFα-induced activation of RIPK1 in mouse organs” value [10] was “almost eliminated TNFα-induced activation of RIPK1 in mouse organs” and the IC50 [11] was 730 nM. For the same compound, the “fold less potent against hRIPK3 than hRIPK1” value ([11]; ratio of enzymatic IC50s) was “at least 200 fold”, the Tmax ([12]; po, 5 mg/kg) was 0.5 h and the bioavailability ([12]; po, 5 mg/kg) was 34.1%. It also gave a half-life ([12]; po, 5 mg/kg) of 4.19 h, an AUC(0-inf) ([12]; male, iv, 0.5 mg/kg) of 397 ng·h/mL and an AUC(0-t) ([12]; male, iv, 0.5 mg/kg) of 390 ng·h/mL. It also gave an MRT inf ([12]; male, iv, 0.5 mg/kg) of 1.03 h, a Vd ([12]; male, iv, 0.5 mg/kg) of 0.77 L/kg and a clearance ([12]; male, iv, 0.5 mg/kg) of 13.3 mL/min/kg. For the same compound, the half-life ([12]; male, iv, 0.5 mg/kg) was 0.91 h, the AUC(0-inf) ([12]; male, po, 5 mg/kg) was 2250 ng·h/mL and the AUC(0-t) ([12]; male, po, 5 mg/kg) was 2200 ng·h/mL. For the same compound, the Cmax ([12]; male, po, 5 mg/kg) was 505 ng/mL, the MRT inf ([12]; male, po, 5 mg/kg) was 6.82 h and the “adverse effects during long-term treatment” value [13] was “no adverse effects had been observed”. For the same compound, the “colorectal stricture, splenomegaly and thymus hyperplasia symptoms in IBD mice” value [13] was “significantly alleviated”, the “diarrhea and weight loss symptoms in IBD mice” value ([13]; vs control group) was “significantly reduced diarrhea and weight loss symptoms” and the AUC(0-inf) ([14]; iv, 0.5 mg/kg) was 476 ng·h/mL. The AUC(0-t) ([14]; iv, 0.5 mg/kg) was 471 ng·h/mL, the MRT inf ([14]; iv, 0.5 mg/kg) was 1.49 h and the Vd ([14]; iv, 0.5 mg/kg) was 0.94 L/kg. It also gave a clearance ([14]; iv, 0.5 mg/kg) of 10 mL/min/kg, a half-life ([14]; iv, 0.5 mg/kg) of 1.29 h and an AUC(0-inf) ([14]; po, 5 mg/kg) of 6520 ng·h/mL. For the same compound, the AUC(0-t) ([14]; po, 5 mg/kg) was 6500 ng·h/mL, the Cmax ([14]; po, 5 mg/kg) was 1980 ng/mL and the MRT inf ([14]; po, 5 mg/kg) was 2.81 h. The Tmax ([14]; po, 5 mg/kg) was 0.5 h, the bioavailability ([14]; po, 5 mg/kg) was 82.2% and the half-life ([14]; po, 5 mg/kg) was 3.86 h. For the same compound, the “RA symptoms (paw edema, erythema, joint stiffness)” value [15] was “effectively eliminate most RA symptoms” and the “bodyweight in RA mice” value [15] was “without affecting the bodyweight”.
